{
  "source": "the supplement of paper PMC10307832",
  "assay_in_all_cases": "relative viability (nuclei count vs DMSO), 5 days (fraction); higher = more cells survive",
  "key": {"[1]": {"compound": "C1=CC=C2C(=C1)C=CC(=C2SSC3=C(C=CC4=CC=CC=C43)O)O [IPA-3] + Nc1nc2[nH]cc(CCc3ccc(C(=O)N[C@@H](CCC(=O)O)C(=O)O)cc3)c2c(=O)[nH]1 [Pemetrexed] (partner 0.2 µM)", "summary_of_the_method": "(§1)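 One day after seeding in 1536-well plates, lung cancer cell lines were dosed by pin tool. Dosing was either single-drug or a fixed anchor-drug dose plus five library-drug doses (not always all listed) in √10 steps. After 5 days, nuclei were stained in one fix-and-stain step and counted on 4× images, and relative viability is the nuclei count of treated wells over that of vehicle wells, given as the median of duplicate plates.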"}, "[2]": {"compound": "Cc1ccc(-n2nc(C(C)(C)C)cc2NC(=O)Nc2ccc(OCCN3CCOCC3)c3ccccc23)cc1 [Doramapimod] + NC(=O)Nc1cc(-c2cccc(F)c2)sc1C(=O)N[C@H]1CCCNC1 [AZD7762] (partner 0.2 µM)", "summary_of_the_method": "as §1"}, "[3]": {"compound": "Cn1c(Nc2ccc(C(F)(F)F)cc2)nc2cc(Oc3ccnc(-c4ncc(C(F)(F)F)[nH]4)c3)ccc21 [RAF265] + COc1cc2c(Oc3ccc(NC(=O)C4(C(=O)Nc5ccc(F)cc5)CC4)cc3F)ccnc2cc1OCCCN1CCOCC1 [Foretinib] (partner 0.25 µM)", "summary_of_the_method": "as §1"}, "[4]": {"compound": "Cn1c(Nc2ccc(C(F)(F)F)cc2)nc2cc(Oc3ccnc(-c4ncc(C(F)(F)F)[nH]4)c3)ccc21 [RAF265] + Cc1nc(Nc2ncc(C(=O)Nc3c(C)cccc3Cl)s2)cc(N2CCN(CCO)CC2)n1 [Dasatinib] (partner 0.075 µM)", "summary_of_the_method": "as §1"}},
  "data": [
    {"cell line": "EMC-BAC-2", "values": [
      {"measurement": "relative viability", "setting": "[1]; first compound 0.2 µM", "value": 0.456},
      {"measurement": "relative viability", "setting": "[1]; first compound 0.6325 µM", "value": 0.461},
      {"measurement": "relative viability", "setting": "[1]; first compound 2 µM", "value": 0.458},
      {"measurement": "relative viability", "setting": "[1]; first compound 6.325 µM", "value": 0.437},
      {"measurement": "relative viability", "setting": "[1]; first compound 20 µM", "value": 0.464},
      {"measurement": "relative viability", "setting": "[2]; first compound 0.02 µM", "value": 1.07},
      {"measurement": "relative viability", "setting": "[2]; first compound 0.06325 µM", "value": 1.16},
      {"measurement": "relative viability", "setting": "[2]; first compound 0.2 µM", "value": 1.07},
      {"measurement": "relative viability", "setting": "[2]; first compound 0.6325 µM", "value": 1.07},
      {"measurement": "relative viability", "setting": "[2]; first compound 2 µM", "value": 0.965},
      {"measurement": "relative viability", "setting": "[3]; first compound 0.01 µM", "value": 1.09},
      {"measurement": "relative viability", "setting": "[3]; first compound 0.03162 µM", "value": 0.741},
      {"measurement": "relative viability", "setting": "[3]; first compound 0.1 µM", "value": 0.753},
      {"measurement": "relative viability", "setting": "[3]; first compound 0.3162 µM", "value": 0.685},
      {"measurement": "relative viability", "setting": "[3]; first compound 1 µM", "value": 0.276},
      {"measurement": "relative viability", "setting": "[4]; first compound 0.01 µM", "value": 0.318},
      {"measurement": "relative viability", "setting": "[4]; first compound 0.03162 µM", "value": 0.256},
      {"measurement": "relative viability", "setting": "[4]; first compound 0.1 µM", "value": 0.196},
      {"measurement": "relative viability", "setting": "[4]; first compound 0.3162 µM", "value": 0.224},
      {"measurement": "relative viability", "setting": "[4]; first compound 1 µM", "value": 0.0752}
    ]},
    {"cell line": "LCLC-103H", "values": [
      {"measurement": "relative viability", "setting": "[1]; first compound 0.2 µM", "value": 0.474},
      {"measurement": "relative viability", "setting": "[1]; first compound 0.6325 µM", "value": 0.463},
      {"measurement": "relative viability", "setting": "[1]; first compound 2 µM", "value": 0.461},
      {"measurement": "relative viability", "setting": "[1]; first compound 6.325 µM", "value": 0.504},
      {"measurement": "relative viability", "setting": "[1]; first compound 20 µM", "value": 0.476},
      {"measurement": "relative viability", "setting": "[2]; first compound 0.02 µM", "value": 0.908},
      {"measurement": "relative viability", "setting": "[2]; first compound 0.06325 µM", "value": 0.78},
      {"measurement": "relative viability", "setting": "[2]; first compound 0.2 µM", "value": 0.795},
      {"measurement": "relative viability", "setting": "[2]; first compound 0.6325 µM", "value": 0.978},
      {"measurement": "relative viability", "setting": "[2]; first compound 2 µM", "value": 0.762},
      {"measurement": "relative viability", "setting": "[3]; first compound 0.01 µM", "value": 0.802},
      {"measurement": "relative viability", "setting": "[3]; first compound 0.03162 µM", "value": 0.587},
      {"measurement": "relative viability", "setting": "[3]; first compound 0.1 µM", "value": 0.645},
      {"measurement": "relative viability", "setting": "[3]; first compound 0.3162 µM", "value": 0.504},
      {"measurement": "relative viability", "setting": "[3]; first compound 1 µM", "value": 0.39},
      {"measurement": "relative viability", "setting": "[4]; first compound 0.01 µM", "value": 0.431},
      {"measurement": "relative viability", "setting": "[4]; first compound 0.03162 µM", "value": 0.467},
      {"measurement": "relative viability", "setting": "[4]; first compound 0.1 µM", "value": 0.478},
      {"measurement": "relative viability", "setting": "[4]; first compound 0.3162 µM", "value": 0.386},
      {"measurement": "relative viability", "setting": "[4]; first compound 1 µM", "value": 0.338}
    ]},
    {"cell line": "LK-2", "values": [
      {"measurement": "relative viability", "setting": "[1]; first compound 0.2 µM", "value": 0.29},
      {"measurement": "relative viability", "setting": "[1]; first compound 0.6325 µM", "value": 0.255},
      {"measurement": "relative viability", "setting": "[1]; first compound 2 µM", "value": 0.272},
      {"measurement": "relative viability", "setting": "[1]; first compound 6.325 µM", "value": 0.287},
      {"measurement": "relative viability", "setting": "[1]; first compound 20 µM", "value": 0.242},
      {"measurement": "relative viability", "setting": "[2]; first compound 0.02 µM", "value": 0.347},
      {"measurement": "relative viability", "setting": "[2]; first compound 0.06325 µM", "value": 0.216},
      {"measurement": "relative viability", "setting": "[2]; first compound 0.2 µM", "value": 0.298},
      {"measurement": "relative viability", "setting": "[2]; first compound 0.6325 µM", "value": 0.258},
      {"measurement": "relative viability", "setting": "[2]; first compound 2 µM", "value": 0.165},
      {"measurement": "relative viability", "setting": "[3]; first compound 0.01 µM", "value": 1.07},
      {"measurement": "relative viability", "setting": "[3]; first compound 0.03162 µM", "value": 1.13},
      {"measurement": "relative viability", "setting": "[3]; first compound 0.1 µM", "value": 0.952},
      {"measurement": "relative viability", "setting": "[3]; first compound 0.3162 µM", "value": 1.05},
      {"measurement": "relative viability", "setting": "[3]; first compound 1 µM", "value": 0.862},
      {"measurement": "relative viability", "setting": "[4]; first compound 0.01 µM", "value": 0.272},
      {"measurement": "relative viability", "setting": "[4]; first compound 0.03162 µM", "value": 0.295},
      {"measurement": "relative viability", "setting": "[4]; first compound 0.1 µM", "value": 0.291},
      {"measurement": "relative viability", "setting": "[4]; first compound 0.3162 µM", "value": 0.394},
      {"measurement": "relative viability", "setting": "[4]; first compound 1 µM", "value": 0.213}
    ]},
    {"cell line": "NCI-H2405", "values": [
      {"measurement": "relative viability", "setting": "[1]; first compound 0.2 µM", "value": 1.19},
      {"measurement": "relative viability", "setting": "[1]; first compound 0.6325 µM", "value": 1.07},
      {"measurement": "relative viability", "setting": "[1]; first compound 2 µM", "value": 1.11},
      {"measurement": "relative viability", "setting": "[1]; first compound 6.325 µM", "value": 0.998},
      {"measurement": "relative viability", "setting": "[1]; first compound 20 µM", "value": 0.962},
      {"measurement": "relative viability", "setting": "[2]; first compound 0.02 µM", "value": 0.821},
      {"measurement": "relative viability", "setting": "[2]; first compound 0.06325 µM", "value": 0.746},
      {"measurement": "relative viability", "setting": "[2]; first compound 0.2 µM", "value": 0.758},
      {"measurement": "relative viability", "setting": "[2]; first compound 0.6325 µM", "value": 0.895},
      {"measurement": "relative viability", "setting": "[2]; first compound 2 µM", "value": 0.686},
      {"measurement": "relative viability", "setting": "[3]; first compound 0.01 µM", "value": 1.03},
      {"measurement": "relative viability", "setting": "[3]; first compound 0.03162 µM", "value": 1.01},
      {"measurement": "relative viability", "setting": "[3]; first compound 0.1 µM", "value": 1},
      {"measurement": "relative viability", "setting": "[3]; first compound 0.3162 µM", "value": 0.935},
      {"measurement": "relative viability", "setting": "[3]; first compound 1 µM", "value": 0.701},
      {"measurement": "relative viability", "setting": "[4]; first compound 0.01 µM", "value": 0.242},
      {"measurement": "relative viability", "setting": "[4]; first compound 0.03162 µM", "value": 0.194},
      {"measurement": "relative viability", "setting": "[4]; first compound 0.1 µM", "value": 0.191},
      {"measurement": "relative viability", "setting": "[4]; first compound 0.3162 µM", "value": 0.159},
      {"measurement": "relative viability", "setting": "[4]; first compound 1 µM", "value": 0.193}
    ]}
  ]
}
